These compounds were tested against T1, JAK2 (JH1domain-catalytic, Y1007F,Y1008F) kinase (Homo sapiens, UniProt O60674, Y1007F/Y1008F) (assay: JAK2 JH1 Domain Binding Assay). Conditions: qPCR readout.
T1 construct: JAK2 (JH1domain-catalytic, Y1007F,Y1008F) kinase was expressed as N-terminal fusion; made in house; host or cells: transiently transfected HEK293 cells
T1 sequence (O60674 849-1124 Y1007F/Y1008F limits assumed): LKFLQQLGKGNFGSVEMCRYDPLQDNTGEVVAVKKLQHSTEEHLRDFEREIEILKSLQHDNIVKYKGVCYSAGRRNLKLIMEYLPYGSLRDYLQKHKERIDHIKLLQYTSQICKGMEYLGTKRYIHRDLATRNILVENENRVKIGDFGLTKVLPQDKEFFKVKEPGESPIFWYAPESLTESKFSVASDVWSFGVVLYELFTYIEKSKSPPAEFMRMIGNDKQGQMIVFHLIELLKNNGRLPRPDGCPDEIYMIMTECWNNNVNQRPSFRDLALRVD

| Structure (SMILES) | Kd [nM] |
| --- | --- |
| Cn1c(Nc2nn3c(c2F)COC(C)(C)C3)nc2ncc(Oc3cnn4ccncc34)c(Cl)c21 [Example I-232, N-(7-chloro-1-methyl-6-(pyrazolo[1,5-a]pyrazin-3-yloxy)-1H-imidazo[4,5-b]pyridin-2-yl)-3-fluoro-6,6-dimethyl-6,7-dihydro-4H-pyrazolo[5,1-c][1,4]oxazin-2-amine] | < 10 |
| CNc1nccn2ncc(Oc3cnc4nc(Nc5cc(C(F)(F)F)c(C#N)n(C)c5=O)n(C)c4c3Cl)c12 [Example I-233, 5-((7-chloro-1-methyl-6-((4-(methylamino)pyrazolo[1,5-a]pyrazin-3-yl)oxy)-1H-imidazo[4,5-b]pyridin-2-yl)amino)-1-methyl-6-oxo-3-(trifluoromethyl)-1,6-dihydropyridine-2-carbonitrile] | 50 to 1000 |
| CNc1nccn2ncc(Oc3cnc4nc(Nc5cc(C(F)(F)F)c(CN(C)C)cc5F)n(C)c4c3Cl)c12 [Example I-235, 7-chloro-N-(4-((dimethylamino)methyl)-2-fluoro-5-(trifluoromethyl)phenyl)-1-methyl-6-((4-(methylamino)pyrazolo[1,5-a]pyrazin-3-yl)oxy)-1H-imidazo[4,5-b]pyridin-2-amine] | 10 to 50 |
| CNc1nccn2ncc(Oc3cnc4nc(Nc5cc(C(F)(F)F)n(C6CC7(COC7)C6)n5)n(C)c4c3Cl)c12 [Example I-236, N-(1-(2-oxaspiro[3.3]heptan-6-yl)-5-(trifluoromethyl)-1H-pyrazol-3-yl)-7-chloro-1-methyl-6-((4-(methylamino)pyrazolo[1,5-a]pyrazin-3-yl)oxy)-1H-imidazo[4,5-b]pyridin-2-amine] | < 10 |
| CNc1nccn2ncc(Oc3cnc4nc(Nc5cc(OC[C@@H]6CCCN6C)cc(C(F)(F)F)c5)n(C)c4c3Cl)c12 [Example I-241, (S)-7-chloro-1-methyl-6-((4-(methylamino)pyrazolo[1,5-a]pyrazin-3-yl)oxy)-N-(3-((1-methylpyrrolidin-2-yl)methoxy)-5-(trifluoromethyl)phenyl)-1H-imidazo[4,5-b]pyridin-2-amine] | < 10 |
| CNc1nccn2ncc(Oc3cnc4nc(Nc5cc(OC[C@H]6CCCN6C)cc(C(F)(F)F)c5)n(C)c4c3Cl)c12 [Example I-242, (R)-7-chloro-1-methyl-6-((4-(methylamino)pyrazolo[1,5-a]pyrazin-3-yl)oxy)-N-(3-((1-methylpyrrolidin-2-yl)methoxy)-5-(trifluoromethyl)phenyl)-1H-imidazo[4,5-b]pyridin-2-amine] | < 10 |
| CN1CCC[C@H]1COc1cc(Nc2nc3ncc(Oc4cnn5ccncc45)c(Cl)c3n2C)cc(C(F)(F)F)c1 [Example I-243, (S)-7-chloro-1-methyl-N-(3-((1-methylpyrrolidin-2-yl)methoxy)-5-(trifluoromethyl)phenyl)-6-(pyrazolo[1,5-a]pyrazin-3-yloxy)-1H-imidazo[4,5-b]pyridin-2-amine] | < 10 |
| CN1CCC[C@@H]1COc1cc(Nc2nc3ncc(Oc4cnn5ccncc45)c(Cl)c3n2C)cc(C(F)(F)F)c1 [Example I-244, (R)-7-chloro-1-methyl-N-(3-((1-methylpyrrolidin-2-yl)methoxy)-5-(trifluoromethyl)phenyl)-6-(pyrazolo[1,5-a]pyrazin-3-yloxy)-1H-imidazo[4,5-b]pyridin-2-amine] | < 10 |
| CNc1nccn2ncc(Oc3cnc4nc(Nc5cc(CN6CC(F)C6)cc(C(F)(F)F)c5)n(C)c4c3Cl)c12 [Example I-246, 7-chloro-N-(3-((3-fluoroazetidin-1-yl)methyl)-5-(trifluoromethyl)phenyl)-1-methyl-6-((4-(methylamino)pyrazolo[1,5-a]pyrazin-3-yl)oxy)-1H-imidazo[4,5-b]pyridin-2-amine] | 10 to 50 |
| CNc1nccn2ncc(Oc3cnc4nc(Nc5cc(CN6CC(OC)C6)cc(C(F)(F)F)c5)n(C)c4c3Cl)c12 [Example I-247, 7-chloro-N-(3-((3-methoxyazetidin-1-yl)methyl)-5-(trifluoromethyl)phenyl)-1-methyl-6-((4-(methylamino)pyrazolo[1,5-a]pyrazin-3-yl)oxy)-1H-imidazo[4,5-b]pyridin-2-amine] | 10 to 50 |
| Cn1cc(C(F)(F)F)cc(Nc2nc3ncc(Oc4cnn5ccnc(NCCN6CCOCC6)c45)c(Cl)c3n2C)c1=O [Example I-248, 3-((7-chloro-1-methyl-6-((4-((2-morpholinoethyl)amino)pyrazolo[1,5-a]pyrazin-3-yl)oxy)-1H-imidazo[4,5-b]pyridin-2-yl)amino)-1-methyl-5-(trifluoromethyl)pyridin-2(1H)-one] | < 10 |
| CNc1nccn2ncc(Oc3cnc4nc(Nc5cc(CN6CC[C@H](OC)C6)cc(C(F)(F)F)c5)n(C)c4c3Cl)c12 [Example I-249, (S)-7-chloro-N-(3-((3-methoxypyrrolidin-1-yl)methyl)-5-(trifluoromethyl)phenyl)-1-methyl-6-((4-(methylamino)pyrazolo[1,5-a]pyrazin-3-yl)oxy)-1H-imidazo[4,5-b]pyridin-2-amine] | 10 to 50 |
| CNc1nccn2ncc(Oc3cnc4nc(Nc5cc(C(C)(C)C)n([C@H]6CCN(C)C6)n5)n(C)c4c3Cl)c12 [Example I-251, (S)—N-(5-(tert-butyl)-1-(1-methylpyrrolidin-3-yl)-1H-pyrazol-3-yl)-7-chloro-1-methyl-6-((4-(methylamino)pyrazolo[1,5-a]pyrazin-3-yl)oxy)-1H-imidazo[4,5-b]pyridin-2-amine] | < 10 |
| Cc1nc(Nc2nc3ncc(Oc4cnn5ccncc45)c(Cl)c3n2C)nc(C)c1C1CCCC1 [Example I-253, 7-chloro-N-(5-cyclopentyl-4,6-dimethylpyrimidin-2-yl)-1-methyl-6-(pyrazolo[1,5-a]pyrazin-3-yloxy)-1H-imidazo[4,5-b]pyridin-2-amine] | < 10 |
| CNc1nccn2ncc(Oc3cnc4nc(Nc5cc(C6CCN(C)CC6)cc(C(F)(F)F)c5)n(C)c4c3Cl)c12 [Example I-254, 7-chloro-1-methyl-6-((4-(methylamino)pyrazolo[1,5-a]pyrazin-3-yl)oxy)-N-(3-(1-methylpiperidin-4-yl)-5-(trifluoromethyl)phenyl)-1H-imidazo[4,5-b]pyridin-2-amine] | < 10 |

Further lines, results first:

| Kd [nM] | Structure (SMILES) |
| --- | --- |
| 10 to 50 | CNc1nccn2ncc(Oc3cnc4nc(Nc5cc(O[C@H]6CCN(C)C6)cc(C(F)(F)F)c5)n(C)c4c3Cl)c12 [Example I-228, (S)-7-chloro-1-methyl-6-((4-(methylamino)pyrazolo[1,5-a]pyrazin-3-yl)oxy)-N-(3-((1-methylpyrrolidin-3-yl)oxy)-5-(trifluoromethyl)phenyl)-1H-imidazo[4,5-b]pyridin-2-amine] |
| 10 to 50 | CNc1nccn2ncc(Oc3cnc4nc(Nc5cc(O[C@@H]6CCN(C)C6)cc(C(F)(F)F)c5)n(C)c4c3Cl)c12 [Example I-229, (R)-7-chloro-1-methyl-6-((4-(methylamino)pyrazolo[1,5-a]pyrazin-3-yl)oxy)-N-(3-((1-methylpyrrolidin-3-yl)oxy)-5-(trifluoromethyl)phenyl)-1H-imidazo[4,5-b]pyridin-2-amine] |
| 50 to 1000 | CCn1c(C(C)(C)C)ncc(Nc2nc3ncc(Oc4cnn5ccnc(NC)c45)c(Cl)c3n2C)c1=O [Example I-230, 2-(tert-butyl)-5-((7-chloro-1-methyl-6-((4-(methylamino)pyrazolo[1,5-a]pyrazin-3-yl)oxy)-1H-imidazo[4,5-b]pyridin-2-yl)amino)-3-ethylpyrimidin-4(3H)-one] |
| < 10 | Cc1nc(Nc2nc3ncc(Oc4cnn5ccncc45)c(Cl)c3n2C)nc(C)c1C1CC1 [Example I-231, 7-chloro-N-(5-cyclopropyl-4,6-dimethylpyrimidin-2-yl)-1-methyl-6-(pyrazolo[1,5-a]pyrazin-3-yloxy)-1H-imidazo[4,5-b]pyridin-2-amine] |
| 10 to 50 | CNc1nccn2ncc(Oc3cnc4nc(Nc5cc6c(c(C(F)(F)F)c5)C(C)(C)N(C)C6=O)n(C)c4c3Cl)c12 [Example I-234, 6-((7-chloro-1-methyl-6-((4-(methylamino)pyrazolo[1,5-a]pyrazin-3-yl)oxy)-1H-imidazo[4,5-b]pyridin-2-yl)amino)-2,3,3-trimethyl-4-(trifluoromethyl)isoindolin-1-one] |
| 10 to 50 | Cn1c(Nc2cc(N3CCC(O)CC3)cc(C(F)(F)F)c2)nc2ncc(Oc3cnn4ccncc34)c(Cl)c21 [Example I-237, 1-(3-((7-chloro-1-methyl-6-(pyrazolo[1,5-a]pyrazin-3-yloxy)-1H-imidazo[4,5-b]pyridin-2-yl)amino)-5-(trifluoromethyl)phenyl)piperidin-4-ol] |
| < 10 | Cn1c(Nc2cc(N3CC[C@@H](O)C3)cc(C(F)(F)F)c2)nc2ncc(Oc3cnn4ccncc34)c(Cl)c21 [Example I-238, (R)-1-(3-((7-chloro-1-methyl-6-(pyrazolo[1,5-a]pyrazin-3-yloxy)-1H-imidazo[4,5-b]pyridin-2-yl)amino)-5-(trifluoromethyl)phenyl)pyrrolidin-3-ol] |
| 50 to 1000 | CNc1nccn2ncc(Oc3cnc4nc(Nc5cc6c(c(C(F)(F)F)c5)C(C)(C)N(C)C6=O)n(C)c4c3C#N)c12 [Example I-240, 1-methyl-6-((4-(methylamino)pyrazolo[1,5-a]pyrazin-3-yl)oxy)-2-((1,1,2-trimethyl-3-oxo-7-(trifluoromethyl)isoindolin-5-yl)amino)-1H-imidazo[4,5-b]pyridine-7-carbonitrile] |
| 10 to 50 | CNc1nccn2ncc(Oc3cnc4nc(Nc5cc(CN6CC[C@@H](OC)C6)cc(C(F)(F)F)c5)n(C)c4c3Cl)c12 [Example I-250, (R)-7-chloro-N-(3-((3-methoxypyrrolidin-1-yl)methyl)-5-(trifluoromethyl)phenyl)-1-methyl-6-((4-(methylamino)pyrazolo[1,5-a]pyrazin-3-yl)oxy)-1H-imidazo[4,5-b]pyridin-2-amine] |
| 10 to 50 | CNc1nccn2ncc(Oc3cnc4nc(Nc5cc(C(C)(C)C)n([C@@H]6CCN(C)C6)n5)n(C)c4c3Cl)c12 [Example I-252, (R)—N-(5-(tert-butyl)-1-(1-methylpyrrolidin-3-yl)-1H-pyrazol-3-yl)-7-chloro-1-methyl-6-((4-(methylamino)pyrazolo[1,5-a]pyrazin-3-yl)oxy)-1H-imidazo[4,5-b]pyridin-2-amine] |

— patent US12043632B2, “6-heteroaryloxy benzimidazoles and azabenzimidazoles as JAK2 inhibitors” (Ajax Therapeutics, Inc., priority 2020, dated 2024)
